This note sets out measurements from US20240034723A1, “PIPERIDINYL SMALL MOLECULE DEGRADERS OF HELIOS AND METHODS OF USE” (DANA-FARBER CANCER INSTITUTE, INC., priority 2020, published 2024).

The target in this assay is T1, IKZF2 (Helios) (Homo sapiens, UniProt Q96SW2+Q9UKS7).
T1 construct: CRISPR/Cas-mediated insertion of the HiBiT peptide tag (Promega™) to the N-terminus of the IKZF2 gene locus; endogenous in cells; host or cells: MOLT4 cells, CRISPR/Cas knock-in of HiBiT at the endogenous IKZF2 locus
T1 sequence (Q9UKS7 whole entry): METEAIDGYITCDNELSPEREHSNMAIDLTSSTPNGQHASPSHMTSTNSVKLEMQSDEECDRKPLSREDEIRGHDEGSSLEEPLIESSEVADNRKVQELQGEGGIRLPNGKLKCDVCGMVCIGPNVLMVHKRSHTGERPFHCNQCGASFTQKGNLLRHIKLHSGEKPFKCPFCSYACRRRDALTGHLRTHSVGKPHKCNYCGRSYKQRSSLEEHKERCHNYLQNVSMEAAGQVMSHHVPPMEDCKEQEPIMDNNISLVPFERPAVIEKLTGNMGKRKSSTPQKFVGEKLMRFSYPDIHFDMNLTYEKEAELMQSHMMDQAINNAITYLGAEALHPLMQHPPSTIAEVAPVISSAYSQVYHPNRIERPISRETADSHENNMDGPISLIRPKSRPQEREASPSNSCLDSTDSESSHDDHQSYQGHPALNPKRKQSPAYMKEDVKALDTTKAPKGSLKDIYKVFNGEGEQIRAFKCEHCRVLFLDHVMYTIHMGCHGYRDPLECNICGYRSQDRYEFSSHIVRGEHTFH
T1 sequence (Q96SW2 whole entry): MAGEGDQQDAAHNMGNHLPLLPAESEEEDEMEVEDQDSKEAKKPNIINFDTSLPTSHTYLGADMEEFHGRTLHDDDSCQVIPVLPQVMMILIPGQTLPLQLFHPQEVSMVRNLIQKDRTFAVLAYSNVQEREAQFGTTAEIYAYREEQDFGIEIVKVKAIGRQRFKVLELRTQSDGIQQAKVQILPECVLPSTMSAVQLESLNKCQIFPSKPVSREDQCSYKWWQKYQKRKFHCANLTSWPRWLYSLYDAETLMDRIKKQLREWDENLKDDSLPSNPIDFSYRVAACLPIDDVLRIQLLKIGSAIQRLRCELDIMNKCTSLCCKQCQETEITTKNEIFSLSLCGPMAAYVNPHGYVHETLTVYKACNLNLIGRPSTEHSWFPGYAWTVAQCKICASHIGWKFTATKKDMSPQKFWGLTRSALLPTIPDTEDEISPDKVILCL
T1 sequence (Q16531 whole entry partner): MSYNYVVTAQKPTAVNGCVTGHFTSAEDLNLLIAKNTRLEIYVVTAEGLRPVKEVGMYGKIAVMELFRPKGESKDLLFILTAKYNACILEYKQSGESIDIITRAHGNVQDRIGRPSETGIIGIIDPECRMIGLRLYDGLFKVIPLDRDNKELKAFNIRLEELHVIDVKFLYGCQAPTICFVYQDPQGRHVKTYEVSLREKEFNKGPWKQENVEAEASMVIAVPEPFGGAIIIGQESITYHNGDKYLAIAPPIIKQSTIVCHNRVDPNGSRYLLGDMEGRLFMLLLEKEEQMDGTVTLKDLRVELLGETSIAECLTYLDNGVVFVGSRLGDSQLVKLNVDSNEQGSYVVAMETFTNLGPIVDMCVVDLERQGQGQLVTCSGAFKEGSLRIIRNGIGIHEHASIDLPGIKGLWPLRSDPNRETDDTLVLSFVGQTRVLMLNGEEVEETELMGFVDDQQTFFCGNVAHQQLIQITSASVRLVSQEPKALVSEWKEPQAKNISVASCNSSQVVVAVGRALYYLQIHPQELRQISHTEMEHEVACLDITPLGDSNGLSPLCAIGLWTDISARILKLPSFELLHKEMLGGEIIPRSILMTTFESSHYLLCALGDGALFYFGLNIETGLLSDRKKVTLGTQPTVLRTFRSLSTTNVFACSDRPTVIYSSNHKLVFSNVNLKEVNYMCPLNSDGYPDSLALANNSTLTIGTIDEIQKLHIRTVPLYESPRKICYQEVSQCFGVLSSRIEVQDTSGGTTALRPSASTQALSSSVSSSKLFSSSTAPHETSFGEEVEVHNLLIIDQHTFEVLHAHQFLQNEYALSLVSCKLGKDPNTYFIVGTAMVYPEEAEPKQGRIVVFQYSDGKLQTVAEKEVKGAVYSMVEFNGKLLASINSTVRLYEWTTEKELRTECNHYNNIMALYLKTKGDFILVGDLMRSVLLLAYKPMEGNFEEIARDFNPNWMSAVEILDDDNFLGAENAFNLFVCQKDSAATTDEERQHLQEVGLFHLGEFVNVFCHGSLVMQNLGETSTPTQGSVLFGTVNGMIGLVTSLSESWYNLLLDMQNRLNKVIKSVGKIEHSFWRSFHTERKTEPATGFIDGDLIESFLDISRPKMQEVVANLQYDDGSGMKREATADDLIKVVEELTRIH
The experiment in a line: MOLT4 IKZF2 HiBit assay protocol (Example 64). The assay is classed as cell-based. The following applies: MOLT4 IKZF2 HiBit cells, 10-point 30 μM to 1 nM; table title: after 6 hours of treatment (method: incubated 24 hours). The procedure:
This protocol uses MOLT4 cells that were engineered using CRISPR/Cas9-mediated genomic insertion of HiBit, tagged to the N terminus of the IKZF2 coding sequence. Day 1. Created a 10-point dose response starting from 30 μM down to 1 nM using a Tecan D300e. Next added 8,000 cells/well of the MOLT4 IKZF2 HiBit cells to the compound plate. […] Day 2. Added Nano-Glo® HiBit Lytic Buffer/Nano-Glo® HiBit Lytic substrate/LgBit Protein mix to each well and incubated for 15 minutes. Finally, read luminescence signal using a BMG Labtech PHERAstar® FSX. Data was normalized to DMSO and graphed using GraphPad Prism to determine the concentration points at which 50% of HiBiT-Helios degradation was achieved by each compound. The extent of degradation (range of luminescence) from the highest to lowest concentration points was calculated to determine Dmax.
In general terms: With HiBiT, luminescence reflects the tagged protein that the partner subunit can reach.
`O=C1CCC(N2Cc3c(ccc(C4CCN(Cc5ccc6ncn(-c7cccnc7)c(=O)c6c5)CC4)c3F)C2=O)C(=O)N1` (stereo not drawn) [Compound 89, 3-(4-fluoro-1-oxo-5-(1-((4-oxo-3-(pyridin-3-yl)-3,4-dihydroquinazolin-6-yl)methyl)piperidin-4-yl)isoindolin-2-yl)piperidine-2,6-dione]: the DC50 lay within 5 to 25 nM.

Regarding `O=C1CCC(N2Cc3cc(C4CCN(Cc5cn6ccc(-c7cccnc7)cc6n5)CC4)ccc3C2=O)C(=O)N1` (stereo not drawn) [Compound 99, 3-(1-oxo-5-(1-((7-(pyridin-3-yl)imidazo[1,2-a]pyridin-2-yl)methyl)piperidin-4-yl)isoindolin-2-yl)piperidine-2,6-dione], the DC50 lay in the range of 25 to 100 nM.

The molecule `Cc1nc2ccc(CN3CCC(c4ccc5c(c4)CN(C4CCC(=O)NC4=O)C5=O)CC3)cc2c(=O)n1-c1ccccn1` (stereo not drawn) [Compound 84, 3-(5-(1-((2-methyl-4-oxo-3-(pyridin-2-yl)-3,4-dihydroquinazolin-6-yl)methyl)piperidin-4-yl)-1-oxoisoindolin-2-yl)piperidine-2,6-dione] gave a DC50 of under 5 nM.

`O=C1CCC(N2Cc3cc(C4CCN(Cc5ccc6ncn(-c7cccc(C(F)(F)F)n7)c(=O)c6c5)CC4)ccc3C2=O)C(=O)N1` (stereo not drawn) [Compound 64, 3-(1-oxo-5-(1-((4-oxo-3-(6-(trifluoromethyl)pyridin-2-yl)-3,4-dihydroquinazolin-6-yl)methyl)piperidin-4-yl)isoindolin-2-yl)piperidine-2,6-dione]: the DC50 is 5 to 25 nM.

Turning to `Cn1cc(-n2cnc3ccc(CN4CCC(c5ccc6c(c5)CN(C5CCC(=O)NC5=O)C6=O)CC4)cc3c2=O)cn1` (stereo not drawn) [Compound 82, 3-(5-(1-((3-(1-methyl-1H-pyrazol-4-yl)-4-oxo-3,4-dihydroquinazolin-6-yl)methyl)piperidin-4-yl)-1-oxoisoindolin-2-yl)piperidine-2,6-dione], the DC50 lay within 5 to 25 nM.

As for `Cc1nc2ccc(CN3CCC(c4ccc5c(c4)CN(C4CCC(=O)NC4=O)C5=O)CC3)cc2c(=O)n1-c1ccccc1` (stereo not drawn) [Compound 83, 3-(5-(1-((2-methyl-4-oxo-3-phenyl-3,4-dihydroquinazolin-6-yl)methyl)piperidin-4-yl)-1-oxoisoindolin-2-yl)piperidine-2,6-dione], the DC50 was under 5 nM.

`Cc1cccc(-n2cnc3ccc(CN4CCC(c5ccc6c(c5)CN(C5CCC(=O)NC5=O)C6=O)CC4)cc3c2=O)n1` (stereo not drawn) [Compound 62, 3-(5-(1-((3-(6-methylpyridin-2-yl)-4-oxo-3,4-dihydroquinazolin-6-yl)methyl)piperidin-4-yl)-1-oxoisoindolin-2-yl)piperidine-2,6-dione] yielded a DC50 of 5 to 25 nM.

The molecule `O=C1CCC(N2Cc3cc(C4CCN(Cc5cn6cc(-c7cccnc7)ccc6n5)CC4)ccc3C2=O)C(=O)N1` (stereo not drawn) [Compound 97, 3-(1-oxo-5-(1-((6-(pyridin-3-yl)imidazo[1,2-a]pyridin-2-yl)methyl)piperidin-4-yl)isoindolin-2-yl)piperidine-2,6-dione] came in with a DC50 of 25 to 100 nM.

`O=C1CCC(N2Cc3cc(C4CCN(Cc5ccc6ncn(-c7cccc(C(F)(F)F)c7)c(=O)c6c5)CC4)ccc3C2=O)C(=O)N1` (stereo not drawn) [Compound 60, 3-(1-oxo-5-(1-((4-oxo-3-(3-(trifluoromethyl)phenyl)-3,4-dihydroquinazolin-6-yl)methyl)piperidin-4-yl)isoindolin-2-yl)piperidine-2,6-dione] gave a DC50 of 5 to 25 nM.

Molecule `O=C1CCC(N2Cc3cc(C4CCN(Cc5ccc6nc(-c7ccccc7)cn6c5)CC4)ccc3C2=O)C(=O)N1` (stereo not drawn) [Compound 54, 3-(1-oxo-5-(1-((2-phenylimidazo[1,2-a]pyridin-6-yl)methyl)piperidin-4-yl)isoindolin-2-yl)piperidine-2,6-dione] displayed a DC50 of under 5 nM.

`Cc1ncccc1-n1cnc2ccc(CN3CCC(c4ccc5c(c4)CN(C4CCC(=O)NC4=O)C5=O)CC3)cc2c1=O` (stereo not drawn) [Compound 68, 3-(5-(1-((3-(2-methylpyridin-3-yl)-4-oxo-3,4-dihydroquinazolin-6-yl)methyl)piperidin-4-yl)-1-oxoisoindolin-2-yl)piperidine-2,6-dione] had a DC50 of under 5 nM.

Regarding `Cc1ccc(-n2cnc3ccc(CN4CCC(c5ccc6c(c5)CN(C5CCC(=O)NC5=O)C6=O)CC4)cc3c2=O)cn1` (stereo not drawn) [Compound 69, 3-(5-(1-((3-(6-methylpyridin-3-yl)-4-oxo-3,4-dihydroquinazolin-6-yl)methyl)piperidin-4-yl)-1-oxoisoindolin-2-yl)piperidine-2,6-dione], the “IKZF2 DC50 (M)” value is listed as “+ +”.

Regarding `O=C1CCC(N2Cc3c(ccc(C4CCN(Cc5ccc6ncn(-c7ccccn7)c(=O)c6c5)CC4)c3F)C2=O)C(=O)N1` (stereo not drawn) [Compound 85, 3-(4-fluoro-1-oxo-5-(1-((4-oxo-3-(pyridin-2-yl)-3,4-dihydroquinazolin-6-yl)methyl)piperidin-4-yl)isoindolin-2-yl)piperidine-2,6-dione], the DC50 was 25 to 100 nM.

The molecule `O=C1CCC(N2Cc3cc(C4CCN(Cc5ccc6cc(-c7ccccn7)nn6c5)CC4)ccc3C2=O)C(=O)N1` (stereo not drawn) [Compound 92, 3-(1-oxo-5-(1-((2-(pyridin-2-yl)pyrazolo[1,5-a]pyridin-6-yl)methyl)piperidin-4-yl)isoindolin-2-yl)piperidine-2,6-dione] displayed a DC50 of 5 to 25 nM.

Consider `O=C1CCC(N2Cc3cc(C4CCN(Cc5ccc6ncn(-c7cccnc7)c(=O)c6c5)CC4)ccc3C2=O)C(=O)N1` (stereo not drawn) [Compound 67, 3-(1-oxo-5-(1-((4-oxo-3-(pyridin-3-yl)-3,4-dihydroquinazolin-6-yl)methyl)piperidin-4-yl)isoindolin-2-yl)piperidine-2,6-dione], for which the DC50 is 5 to 25 nM.

`O=C1CCC(N2Cc3cc(C4CCN(Cc5ccc6ncn(-c7cncc(F)c7)c(=O)c6c5)CC4)ccc3C2=O)C(=O)N1` (stereo not drawn) [Compound 75, 3-(5-(1-((3-(5-fluoropyridin-3-yl)-4-oxo-3,4-dihydroquinazolin-6-yl)methyl)piperidin-4-yl)-1-oxoisoindolin-2-yl)piperidine-2,6-dione] showed a DC50 of 25 to 100 nM.

In the case of `O=C1CCC(N2Cc3cc(C4CCN(Cc5ccc6nc(-c7ccccc7)nn6c5)CC4)ccc3C2=O)C(=O)N1` (stereo not drawn) [Compound 55, 3-(1-oxo-5-(1-((2-phenyl-[1,2,4]triazolo[1,5-a]pyridin-6-yl)methyl)piperidin-4-yl)isoindolin-2-yl)piperidine-2,6-dione], the DC50 lay within 25 to 100 nM.

`O=C1CCC(N2Cc3cc(C4CCN(Cc5cc6c(=O)n(-c7ccccn7)cnc6cc5F)CC4)ccc3C2=O)C(=O)N1` (stereo not drawn) [Compound 87, 3-(5-(1-((7-fluoro-4-oxo-3-(pyridin-2-yl)-3,4-dihydroquinazolin-6-yl)methyl)piperidin-4-yl)-1-oxoisoindolin-2-yl)piperidine-2,6-dione] returned a DC50 of under 5 nM.

Molecule `O=C1CCC(N2Cc3cc(C4CCN(Cc5ccc6ncn(-c7cccc(F)c7)c(=O)c6c5)CC4)ccc3C2=O)C(=O)N1` (stereo not drawn) [Compound 28, 3-(5-(1-((3-(3-fluorophenyl)-4-oxo-3,4-dihydroquinazolin-6-yl)methyl)piperidin-4-yl)-1-oxoisoindolin-2-yl)piperidine-2,6-dione] yielded a DC50 of 5 to 25 nM.

`COc1cccc(-n2cnc3ccc(CN4CCC(c5ccc6c(c5)CN(C5CCC(=O)NC5=O)C6=O)CC4)cc3c2=O)n1` (stereo not drawn) [Compound 65, 3-(5-(1-((3-(6-methoxypyridin-2-yl)-4-oxo-3,4-dihydroquinazolin-6-yl)methyl)piperidin-4-yl)-1-oxoisoindolin-2-yl)piperidine-2,6-dione] displayed a DC50 of 5 to 25 nM.

For `O=C1CCC(N2Cc3cc(C4CCN(Cc5cn6cc(-c7ccccc7)ccc6n5)CC4)ccc3C2=O)C(=O)N1` (stereo not drawn) [Compound 96, 3-(1-oxo-5-(1-((6-phenylimidazo[1,2-a]pyridin-2-yl)methyl)piperidin-4-yl)isoindolin-2-yl)piperidine-2,6-dione], the DC50 is 25 to 100 nM.

In turn, `N#Cc1cccc(-n2cnc3ccc(CN4CCC(c5ccc6c(c5)CN(C5CCC(=O)NC5=O)C6=O)CC4)cc3c2=O)c1` (stereo not drawn) [Compound 61, 3-(6-((4-(2-(2,6-dioxopiperidin-3-yl)-1-oxoisoindolin-5-yl)piperidin-1-yl)methyl)-4-oxoquinazolin-3(4H)-yl)benzonitrile] returned a DC50 of 5 to 25 nM.

In turn, `O=C1CCC(N2Cc3cc(C4CCN(Cc5cn6ccc(-c7ccccc7)cc6n5)CC4)ccc3C2=O)C(=O)N1` (stereo not drawn) [Compound 98, 3-(1-oxo-5-(1-((7-phenylimidazo[1,2-a]pyridin-2-yl)methyl)piperidin-4-yl)isoindolin-2-yl)piperidine-2,6-dione] showed a DC50 of 25 to 100 nM.

Molecule `CC(C)c1cccc(-n2cnc3ccc(CN4CCC(c5ccc6c(c5)CN(C5CCC(=O)NC5=O)C6=O)CC4)cc3c2=O)n1` (stereo not drawn) [Compound 63, 3-(5-(1-((3-(6-isopropylpyridin-2-yl)-4-oxo-3,4-dihydroquinazolin-6-yl)methyl)piperidin-4-yl)-1-oxoisoindolin-2-yl)piperidine-2,6-dione] gave a DC50 of 5 to 25 nM.
